Measured values reported in PubChem BioAssay AID248 (DTP/NCI, 2004).
Values joined by “and” are separate entries in the source; they are usually repeats but may differ in a detail not shown here. Equal entries are not always repeated. Inconclusive results and toxic doses are left out.

System: L1210 leukemia ip in BDF1 mice, survival T/C
Experiment: NCI In Vivo Anticancer Drug Screen. Data for tumor model L1210 Leukemia (intraperitoneal) in B6D2F1 (BDF1) mice
Conditions: higher = longer survival
Method in brief: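 Value reflects the ratio of survival in compound-treated mice to survival in vehicle-treated controls, with both groups carrying the same transplanted tumor.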

[1] = endpoint: mean survival time, dose: 100.0 mg/kg/injection, schedule: Q01DX009 (ip), vehicle: Klucel (hydroxypropylcellulose) (HPC)
[2] = endpoint: mean survival time, dose: 100.0 mg/kg/injection, schedule: Q04DX002 (ip), vehicle: saline with Tween-80
[3] = endpoint: mean survival time, dose: 200.0 mg/kg/injection, schedule: Q04DX002 (ip), vehicle: saline with Tween-80
[4] = endpoint: mean survival time, dose: 400.0 mg/kg/injection, schedule: Q04DX002 (ip), vehicle: saline with Tween-80
[5] = endpoint: mean survival time, dose: 25.0 mg/kg/injection, schedule: Q01DX009 (ip), vehicle: Klucel (hydroxypropylcellulose) (HPC)
[6] = endpoint: mean survival time, dose: 100.0 mg/kg/injection, schedule: Q04DX003 (ip), vehicle: saline with Tween-80
[7] = endpoint: mean survival time, dose: 200.0 mg/kg/injection, schedule: Q04DX003 (ip), vehicle: saline with Tween-80
[8] = endpoint: mean survival time, dose: 400.0 mg/kg/injection, schedule: Q04DX003 (ip), vehicle: saline with Tween-80
[9] = endpoint: mean survival time, dose: 100.0 mg/kg/injection, schedule: Q01DX001 (ip), vehicle: Klucel (hydroxypropylcellulose) (HPC)
[10] = endpoint: mean survival time, dose: 200.0 mg/kg/injection, schedule: Q01DX001 (ip), vehicle: Klucel (hydroxypropylcellulose) (HPC)
[11] = endpoint: mean survival time, dose: 400.0 mg/kg/injection, schedule: Q01DX001 (ip), vehicle: Klucel (hydroxypropylcellulose) (HPC)
[12] = endpoint: mean survival time, dose: 100.0 mg/kg/injection, schedule: Q04DX002 (ip), vehicle: Klucel (hydroxypropylcellulose) (HPC)
[13] = endpoint: mean survival time, dose: 200.0 mg/kg/injection, schedule: Q04DX002 (ip), vehicle: Klucel (hydroxypropylcellulose) (HPC)

`COc1cc(N=Nc2cccc([N+](=O)[O-])c2)ccc1N(CCCl)CCCl` was tested, and the T/C (endpoint: median survival time, dose: 100.0 mg/kg/injection, schedule: Q01DX009 (ip), vehicle: Klucel (hydroxypropylcellulose) (HPC)) was 98 % of control, the T/C (endpoint: median survival time, dose: 200.0 mg/kg/injection, schedule: Q01DX009 (ip), vehicle: Klucel (hydroxypropylcellulose) (HPC)) was 100 % of control and the T/C (endpoint: median survival time, dose: 400.0 mg/kg/injection, schedule: Q01DX009 (ip), vehicle: Klucel (hydroxypropylcellulose) (HPC)) was 104 % of control.

With `CNC(=O)c1ccc[n+](CC(=O)Nc2ccc(Cl)cc2)c1` the T/C (endpoint: mean survival time, dose: 100.0 mg/kg/injection, schedule: Q04DX003 (ip), vehicle: acetone) was 110 % of control and the T/C (endpoint: mean survival time, dose: 200.0 mg/kg/injection, schedule: Q04DX003 (ip), vehicle: acetone) was 98 % of control.

With `O=C1C=CC(=O)c2c(O)c(CBr)c(CBr)c(O)c21` the T/C (endpoint: mean survival time, dose: 6.25 mg/kg/injection, schedule: Q01DX009 (ip), vehicle: water) was 101 % of control, the T/C (endpoint: mean survival time, dose: 12.5 mg/kg/injection, schedule: Q01DX009 (ip), vehicle: water) was 92 % of control and the T/C (endpoint: mean survival time, dose: 25.0 mg/kg/injection, schedule: Q01DX009 (ip), vehicle: water) was 93 % of control and 94 % of control. The T/C (endpoint: mean survival time, dose: 50.0 mg/kg/injection, schedule: Q01DX009 (ip), vehicle: water) was 89 % of control.

For `CC1=NS(=O)(=O)NC(C)(C)C1`, the T/C (endpoint: mean survival time, dose: 12.5 mg/kg/injection, schedule: Q01DX009 (ip), vehicle: saline) was 93 % of control, the T/C (endpoint: mean survival time, dose: 25.0 mg/kg/injection, schedule: Q01DX009 (ip), vehicle: saline) was 93 % of control and the T/C (endpoint: mean survival time, dose: 50.0 mg/kg/injection, schedule: Q01DX001 (ip), vehicle: carboxymethylcellulose (CMC)) was 123 % of control. For the same compound, the T/C (endpoint: mean survival time, dose: 50.0 mg/kg/injection, schedule: Q01DX009 (ip), vehicle: saline) was 98 % of control, the T/C (endpoint: mean survival time, dose: 100.0 mg/kg/injection, schedule: Q01DX001 (ip), vehicle: carboxymethylcellulose (CMC)) was 96 % of control and the T/C [1] was 87 % of control.

With `NC1CC[N-]CC1.NC1CC[N-]CC1.NC1CC[N-]CC1.NC1CC[N-]CC1.[Cl][Rh][Cl]` the T/C (endpoint: mean survival time, dose: 6.25 mg/kg/injection, schedule: Q01DX009 (ip), vehicle: saline with Tween-80) was 100 % of control, the T/C (endpoint: mean survival time, dose: 12.5 mg/kg/injection, schedule: Q01DX009 (ip), vehicle: saline with Tween-80) was 96 % of control and the T/C (endpoint: mean survival time, dose: 25.0 mg/kg/injection, schedule: Q01DX009 (ip), vehicle: saline with Tween-80) was 104 % of control.

With `NC(=O)CCc1cnc2ccccc2n1` the T/C [1] was 89 % of control, the T/C (endpoint: mean survival time, dose: 100.0 mg/kg/injection, schedule: Q04DX003 (ip), vehicle: Klucel (hydroxypropylcellulose) (HPC)) was 106 % of control and the T/C (endpoint: mean survival time, dose: 200.0 mg/kg/injection, schedule: Q01DX009 (ip), vehicle: Klucel (hydroxypropylcellulose) (HPC)) was 95 % of control. The T/C (endpoint: mean survival time, dose: 200.0 mg/kg/injection, schedule: Q04DX003 (ip), vehicle: Klucel (hydroxypropylcellulose) (HPC)) was 106 % of control, the T/C (endpoint: mean survival time, dose: 400.0 mg/kg/injection, schedule: Q01DX009 (ip), vehicle: Klucel (hydroxypropylcellulose) (HPC)) was 90 % of control and the T/C (endpoint: mean survival time, dose: 400.0 mg/kg/injection, schedule: Q04DX003 (ip), vehicle: Klucel (hydroxypropylcellulose) (HPC)) was 97 % of control.

With `Cc1c2oc3c(C)ccc(C(=O)NCCN4CCN(c5ccccc5)CC4)c3nc-2c(C(=O)NCCN2CCN(c3ccccc3)CC2)c(N)c1=O` the T/C [2] was 92 % of control, the T/C [3] was 95 % of control and the T/C [4] was 95 % of control.

For `CC[N+](C)(CC)c1ccc(/C=N\N(C)C)cc1`, the T/C (endpoint: mean survival time, dose: 6.25 mg/kg/injection, schedule: Q01DX009 (ip), vehicle: Klucel (hydroxypropylcellulose) (HPC)) was 96 % of control, the T/C (endpoint: mean survival time, dose: 12.5 mg/kg/injection, schedule: Q01DX009 (ip), vehicle: Klucel (hydroxypropylcellulose) (HPC)) was 108 % of control and the T/C [5] was 86 % of control.

With `O=C(O)c1ccccc1C(=O)Nc1ccccc1Cl` the T/C [6] was 96 % of control, the T/C [7] was 102 % of control and the T/C [8] was 102 % of control.

In the case of `CCOC1=C(Cl)C(=O)C(OCC)=C(Cl)C1=O`, the T/C (endpoint: mean survival time, dose: 4.0 mg/kg/injection, schedule: Q04DX003 (ip), vehicle: DMSO) is reported as 98 % of control, the T/C (endpoint: mean survival time, dose: 6.0 mg/kg/injection, schedule: Q04DX003 (ip), vehicle: DMSO) is reported as 98 % of control and the T/C (endpoint: mean survival time, dose: 9.0 mg/kg/injection, schedule: Q04DX003 (ip), vehicle: DMSO) is reported as 96 % of control and 86 % of control. The T/C (endpoint: mean survival time, dose: 75.0 mg/kg/injection, schedule: Q01DX001 (ip), vehicle: alcohol) was 92 % of control and the T/C (endpoint: mean survival time, dose: 150.0 mg/kg/injection, schedule: Q01DX001 (ip), vehicle: alcohol) was 97 % of control.

For `CCCCCCCCCCCCCCCC(=O)c1ccccc1`, the T/C [9] was 106 % of control, the T/C [10] was 103 % of control and the T/C [11] was 88 % of control.

In the case of `COc1ccc(OCCCO)cc1`, the T/C [12] is reported as 108 % of control, the T/C [13] is reported as 105 % of control and the T/C (endpoint: mean survival time, dose: 400.0 mg/kg/injection, schedule: Q04DX002 (ip), vehicle: Klucel (hydroxypropylcellulose) (HPC)) is reported as 97 % of control.

With `O=[N+]([O-])c1cc[n+]([O-])c2sccc12` the T/C [6] was 100 % of control, the T/C [7] was 109 % of control and the T/C [8] was 108 % of control.

In the case of `C(C=C(c1ccccc1)c1ccccc1)=C(c1ccccc1)c1ccccc1`, the T/C [6] is reported as 97 % of control, the T/C [7] is reported as 90 % of control and the T/C [8] is reported as 92 % of control.

With `O=C(NCCCCCCCCCCNC(=O)Nc1ccc(C2=NCCCN2)cc1)Nc1ccc(C2=NCCCN2)cc1` the T/C (endpoint: mean survival time, dose: 3.12 mg/kg/injection, schedule: Q01DX Z (ip), vehicle: carboxymethylcellulose (CMC)) was 108 % of control, the T/C (endpoint: mean survival time, dose: 6.25 mg/kg/injection, schedule: Q01DX Z (ip), vehicle: carboxymethylcellulose (CMC)) was 111 % of control and the T/C (endpoint: mean survival time, dose: 9.5 mg/kg/injection, schedule: Q01DX001 (ip), vehicle: other) was 101 % of control. For the same compound, the T/C (endpoint: mean survival time, dose: 19.0 mg/kg/injection, schedule: Q01DX001 (ip), vehicle: other) was 110 % of control, the T/C (endpoint: mean survival time, dose: 25.0 mg/kg/injection, schedule: Q01DX Z (ip), vehicle: carboxymethylcellulose (CMC)) was 122 % of control and the T/C (endpoint: mean survival time, dose: 38.0 mg/kg/injection, schedule: Q01DX001 (ip), vehicle: other) was 101 % of control.

With `O=C1OC(CN2CCOCC2)CN1/N=C/c1ccc([N+](=O)[O-])o1` (stereo not drawn) the T/C [5] was 104 % of control, the T/C (endpoint: mean survival time, dose: 50.0 mg/kg/injection, schedule: Q01DX009 (ip), vehicle: Klucel (hydroxypropylcellulose) (HPC)) was 92 % of control and the T/C (endpoint: mean survival time, dose: 100.0 mg/kg/injection, schedule: Q01DX001 (ip), vehicle: saline with Tween-80) was 97 % of control. The T/C [1] was 101 % of control, the T/C [12] was 310 % of control and the T/C (endpoint: mean survival time, dose: 100.0 mg/kg/injection, schedule: Q04DX002 (ip), vehicle: saline) was 105 % of control. For the same compound, the T/C (endpoint: mean survival time, dose: 200.0 mg/kg/injection, schedule: Q01DX001 (ip), vehicle: saline with Tween-80) was 97 % of control, the T/C [13] was 90 % of control and the T/C (endpoint: mean survival time, dose: 200.0 mg/kg/injection, schedule: Q04DX002 (ip), vehicle: saline) was 98 % of control. The T/C (endpoint: mean survival time, dose: 400.0 mg/kg/injection, schedule: Q01DX001 (ip), vehicle: saline with Tween-80) was 104 % of control.

In the case of `COC(OC)c1nc(N)[nH]c(=O)c1Cc1ccc(Br)cc1`, the T/C [9] is reported as 105 % of control, the T/C (endpoint: mean survival time, dose: 100.0 mg/kg/injection, schedule: Q01DX009 (ip), vehicle: saline with Tween-80) is reported as 93 % of control and the T/C [6] is reported as 106 % of control. For the same compound, the T/C [10] was 108 % of control, the T/C (endpoint: mean survival time, dose: 200.0 mg/kg/injection, schedule: Q01DX009 (ip), vehicle: saline with Tween-80) was 102 % of control and the T/C [7] was 97 % of control. The T/C [11] was 108 % of control, the T/C (endpoint: mean survival time, dose: 400.0 mg/kg/injection, schedule: Q01DX009 (ip), vehicle: saline with Tween-80) was 96 % of control and the T/C [8] was 97 % of control.

With `Cc1ccc(S(=O)(=O)SS(=O)(=O)c2ccc(C)cc2)cc1` the T/C [2] was 90 % of control, the T/C [3] was 90 % of control and the T/C [4] was 90 % of control.
